# Read-outs that look alike come from different tables or passages of the source.
# Tests used:
# Type in all cases: in vivo
# Puccinia recondita [1] = assay: Greenhouse, Puccinia recondita on wheat, 1 day residual; conditions: for pest or weed control at 0.06 ppm / pest or weed control at 0.25 ppm / pest or weed control at 1 ppm / pest or weed control at 4 ppm: Puccinia recondita, read-out: Observed Efficacy
# Text: (§1) The fungicides are applied in single treatments, or in a combination comprising an azolopyrimidine of formula I and a compound selected from the classes (A), (B) and (C) as defined above. The compounds are applied in form of an aqueous spray mix obtained from a concentrated formulation or the technical material.
# (§2) 1. Seed is planted in 6 cm diameter plastic pots and maintained in the greenhouse.
# (§3) 2. When the primary leaf is fully expanded in the case of cereals or several leaves are present in the case of dicots, formulated test compounds are sprayed with a three nozzle overhead fungicide sprayer to near run-off. Alternatively, a single nozzle overhead track sprayer is used for application of the compounds to cereals at a rate of 200 l/ha. Plants are then allowed to air-dry.
# (§4) 3. Inoculation precedes treatment in the case of curative evaluations and follows treatment in case of residual evaluations. For inoculation of powdery mildew disease, plants are set up on greenhouse benches with bottom watering mats and inoculated by dusting them with conidia from infected plants. Between inoculation and treatment for curative evaluations and between treatment and inoculation for residual evaluations, plants are maintained in the greenhouse with bottom watering.
# (§5) For inoculation of non-powdery mildew diseases, an aqueous spore suspension of the pathogen is applied to the plant and the plants are kept 1-2 days in a moist infection chamber before being returned to the greenhouse where they are maintained by bottom watering.
# (§6) 4. Disease on the foliage as percent leaf area with disease symptoms/signs is evaluated about 7 days after inoculation. In the case of wheat, the tips and bases of the leaves are excluded from the evaluation. [formula]
# (§7) 1. Technical compounds are formulated in a solvent/surfactant system consisting of 5% acetone and 0.05% Tween 20 in deionized water. Compounds are dissolved in acetone prior to addition of the water; the Tween 20 can be added through either the acetone or the water. Dilutions are made using the solvent/surfactant system. Formulated compounds are prepared using deionized water.
# (§8) 2. Two kinds of controls are included: Plants treated with the solvent/surfactant solution and inoculated (Solvent Blank). Untreated plants which are inoculated (Inoculated Control).
# (§9) Assessments of the diseases took place at the indicated day after the application of the compounds. Per cent infected leaf area infected was evaluated. The efficacy of the compounds/compounds mixtures to control the diseases was calculated by using the formula given above under item 4: […]
# (§10) Synergy was calculated using the % disease control values of specific treatments for the two COLBY formula given hereinabove
# Fungicidal efficacy of the mixture of Azolopyrimidine C+metconazole (1 day residual) against Puccinia recondita on wheat The tank mix was obtained from a SC formulation containing 100 g Azolopyrimidine C per liter and an EC containing 100 g metconazole per liter. […]
# Fungicidal efficacy of the mixture of Azolopyrimidine C+fluazinam (1 day residual) against Puccinia recondita on wheat The tank mix was obtained from technical material of Azolopyrimidine C and a SC formulation containing 500 g fluazinam per liter. […]
# Blumeria graminis [2] = assay: Greenhouse, Blumeria graminis on wheat, 1 day residual
# Text: as §1, §2, §3, §4, §6, §7, §8, §9, §10
# Fungicidal efficacy of the mixture of Azolopyrimidine C+quinoxyfen (1 day residual)) against Blumeria graminis on wheat The tank mix was obtained from technical material of Azolopyrimidine C and quinoxyfen.
# Fungicidal efficacy of the mixture of Azolopyrimidine C+metalaxyl (1 day residual) against Blumeria graminis on wheat The tank mix was obtained from technical material of Azolopyrimidine C and metalaxyl.
# Fungicidal efficacy of the mixture of Azolopyrimidine C+famoxadone (1 day residual) against Blumeria graminis on wheat The tank mix was obtained from technical material of Azolopyrimidine C and famoxadone.
# Blumeria graminis [3] = assay: Greenhouse, Blumeria graminis on barley, 2 days curative
# Procedure: as §1, with “The trials are carried out under greenhouse (Examples 1 to 32) or field conditions (Examples 33 to 40) in residual or curative applications. The fungicides” for “The fungicides”
# as §2, §3, §4, §6, §7, §8, §9, §10
# Fungicidal efficacy of the mixture of (S)-Azolopyrimidine C in admixture with Fenhexamid (2 days curative) against Blumeria graminis on barley. The tank mixes were obtained from technical material of (S)-Azolopyrimidine C and Fenhexamid.
# Fungicidal efficacy of the mixture of (S)-Azolopyrimidine C in admixture with Azoxystrobin or Trifloxystrobin (2 days curative) against Blumeria graminis on barley. The tank mixes were obtained from technical material of (S)-Azolopyrimidine C and Azoxystrobin or Trifloxystrobin.
# Botrytis cinerea = assay: Apple fruit Botrytis test, Botrytis cinerea on apple fruits, 3 day residual
# Procedure: 1. Apples (Malus X domestica Borkh.) variety Golden Delicious are disinfected by washing them briefly in 70% ethanol. After drying the apples are marked with four short equal-distant lines indicating the positions to be wounded.
# 2. Corresponding with the marks, four holes are poked around the apple equator with a pipette tip. 10 μl of the treatment solution are pipetted into each hole.
# 3. Three hours after application, 10 μl of a conidial suspension of Botrytis cinerea are pipetted into each. For incubation, the treated/inoculated apples are set up for five days.
# 4. Disease occurs as rotten apple tissue surrounding the inoculated wounds. The diameter of the rotten zone around each wound is measured.
# 1. Technical compounds are formulated in a solvent system consisting of 5% acetone and 0.05% Tween 20 in deionized water. Compounds are dissolved in acetone prior to dilution with water. Formulated compounds are prepared using deionized water.
# 2. Three kinds of controls are included:
# Assessments of the diseases took place at the indicated day after the application of the compounds. Per cent infected leaf area infected was evaluated. The efficacy of the compounds/compounds mixtures to control the diseases was calculated by using the formula: [formula]
# as §10
# Fungicidal efficacy of the mixture of Azolopyrimidine A+vinclozolin (3 day residual) against Botrytis cinerea on apple fruits The tank mix was obtained from technical material of Azolopyrimidine A and a WG formulation containing 500 g vinclozolin per kg.
# Fungicidal efficacy of the mixture of Azolopyrimidine A+cyprodinil (3 day residual) against Botrytis cinerea on apple fruits The tank mix was obtained from technical material of Azolopyrimidine A and a WG formulation containing 750 g cyprodinil per kg.
# Fungicidal efficacy of the mixture of Azolopyrimidine A+benomyl (3 day residual) against Botrytis cinerea on apple fruits The tank mix was obtained from technical material of Azolopyrimidine A and a WP formulation containing 500 g benomyl per kg.
# Blumeria graminis [4] = assay: Greenhouse, Blumeria graminis on wheat, 2 days curative; conditions: Example 27
# Procedure: as §1, with “The trials are carried out under greenhouse (Examples 1 to 32) or field conditions (Examples 33 to 40) in residual or curative applications. The fungicides” for “The fungicides”
# as §2, §3, §4, §6, §7, §8, §9, §10
# Fungicidal efficacy of the mixture of (S)-Azolopyrimidine C in admixture with Azoxystrobin or Trifloxystrobin (2 days curative) against Blumeria graminis on wheat. The tank mixes were obtained from technical material of (S)-Azolopyrimidine C and Azoxystrobin or Trifloxystrobin.
# Puccinia recondita [5] = assay: Greenhouse, Puccinia recondita on wheat, 2 days curative; conditions: Example 28
# Procedure: as §1, with “The trials are carried out under greenhouse (Examples 1 to 32) or field conditions (Examples 33 to 40) in residual or curative applications. The fungicides” for “The fungicides”
# as §2, §3, §4, §5, §6, §7, §8, §9, §10
# Fungicidal efficacy of the mixture of (S)-Azolopyrimidine C in admixture with Azoxystrobin or Trifloxystrobin (2 days curative) against Puccinia recondita on wheat. The tank mixes were obtained from technical material of (S)-Azolopyrimidine C and Azoxystrobin or Trifloxystrobin.
# Blumeria graminis [6] = assay: Greenhouse, Blumeria graminis on wheat, 4 days residual; conditions: Example 30
# Procedure: as §1, with “The trials are carried out under greenhouse (Examples 1 to 32) or field conditions (Examples 33 to 40) in residual or curative applications. The fungicides” for “The fungicides”
# as §2, §3, §4, §6, §7, §8, §9, §10
# Fungicidal efficacy of the mixture of (S)-Azolopyrimidine C in admixture with Azoxystrobin or Trifloxystrobin (4 days residual) against Blumeria graminis on wheat. The tank mixes were obtained from technical material of (S)-Azolopyrimidine C and Azoxystrobin or Trifloxystrobin.
# Puccinia recondita [7] = assay: Greenhouse, Puccinia recondita on wheat, 4 days residual; conditions: Example 31
# Procedure: as §1, with “The trials are carried out under greenhouse (Examples 1 to 32) or field conditions (Examples 33 to 40) in residual or curative applications. The fungicides” for “The fungicides”
# as §2, §3, §4, §5, §6, §7, §8, §9, §10
# Fungicidal efficacy of the mixture of (S)-Azolopyrimidine C in admixture with Azoxystrobin or Trifloxystrobin (4 days residual) against Puccinia recondita on wheat. The tank mixes were obtained from technical material of (S)-Azolopyrimidine C and Azoxystrobin or Trifloxystrobin.
compound,measurement,setting,value
C[C@@]1(c2ccc(Oc3ccccc3)cc2)OC(=O)N(Nc2ccccc2)C1=O (racemic) [famoxadone],pest or weed control at 0.06 ppm,"Puccinia recondita [1]; Example 19, dose rate 0.06 ppm",0%
same,pest or weed control at 0.25 ppm,"Puccinia recondita [1]; Example 19, dose rate 0.25 ppm",0%
same,pest or weed control at 1 ppm,"Puccinia recondita [1]; Example 19, dose rate 1 ppm",31%
same,pest or weed control at 4 ppm,"Puccinia recondita [1]; Example 19, dose rate 4 ppm",61%
same,Observed Efficacy,"Blumeria graminis [2]; Example 18, dose rate 0.06 ppm",0%
same,Observed Efficacy,"Blumeria graminis [2]; Example 18, dose rate 0.25 ppm",0%
same,Observed Efficacy,"Blumeria graminis [2]; Example 18, dose rate 1 ppm",0%
same,Observed Efficacy,"Blumeria graminis [2]; Example 18, dose rate 4 ppm",0%
CC1(C(=O)Nc2ccc(O)c(Cl)c2Cl)CCCCC1 [Fenhexamid],Observed Efficacy,"Blumeria graminis [3]; Example 26, dose rate 0.74 ppm",0%
same,Observed Efficacy,"Blumeria graminis [3]; Example 26, dose rate 2.2 ppm",0%
same,Observed Efficacy,"Blumeria graminis [3]; Example 26, dose rate 6.7 ppm",0%
same,Observed Efficacy,"Blumeria graminis [3]; Example 26, dose rate 20 ppm",1%
same,Observed Efficacy,"Blumeria graminis [3]; Example 26, dose rate 60 ppm",7%
same,Observed Efficacy,"Blumeria graminis [3]; Example 26, dose rate 180 ppm",39%
CCCCNC(=O)n1c(NC(=O)OC)nc2ccccc21 [benomyl],Observed Efficacy,"Botrytis cinerea; Example 6, dose rate 1 ppm",0%
same,Observed Efficacy,"Botrytis cinerea; Example 6, dose rate 10 ppm",13%
CC1=C(C(=O)Nc2ccccc2)SCCO1 [carboxin],pest or weed control at 0.06 ppm,Puccinia recondita [1],0%
same,pest or weed control at 0.25 ppm,Puccinia recondita [1],0%
same,pest or weed control at 1 ppm,Puccinia recondita [1],0%
same,pest or weed control at 4 ppm,Puccinia recondita [1],4%
[Cl-].[Cu+2].[Cu+2].[OH-].[OH-].[OH-] [copper oxychloride],Observed Efficacy,"Puccinia recondita [1]; Example 21, dose rate 0.06 ppm",0%
CCCCCCCCCCCCNC(=N)N [dodine],pest or weed control at 0.06 ppm,Puccinia recondita [1],0%
O=[N+]([O-])c1cc(C(F)(F)F)c(Cl)c([N+](=O)[O-])c1Nc1ncc(C(F)(F)F)cc1Cl [fluazinam],pest or weed control at 0.06 ppm,"Puccinia recondita [1]; Example 14, dose rate 0.06 ppm",0%
same,pest or weed control at 1 ppm,"Puccinia recondita [1]; Example 14, dose rate 1 ppm",4%
same,pest or weed control at 4 ppm,"Puccinia recondita [1]; Example 14, dose rate 4 ppm",17%
COCC(=O)N(c1c(C)cccc1C)C(C)C(=O)OC (centres unmarked) [metalaxyl],Observed Efficacy,"Blumeria graminis [2]; Example 17, dose rate 0.06 ppm",0%
same,Observed Efficacy,"Blumeria graminis [2]; Example 17, dose rate 0.25 ppm",0%
same,Observed Efficacy,"Blumeria graminis [2]; Example 17, dose rate 1 ppm",0%
same,Observed Efficacy,"Blumeria graminis [2]; Example 17, dose rate 4 ppm",0%
Fc1ccc(Oc2ccnc3cc(Cl)cc(Cl)c23)cc1 [quinoxyfen],pest or weed control at 0.06 ppm,"Puccinia recondita [1]; Example 15, dose rate 0.06 ppm",0%
same,pest or weed control at 0.25 ppm,"Puccinia recondita [1]; Example 15, dose rate 0.25 ppm",0%
same,pest or weed control at 1 ppm,"Puccinia recondita [1]; Example 15, dose rate 1 ppm",0%
same,pest or weed control at 4 ppm,"Puccinia recondita [1]; Example 15, dose rate 4 ppm",0%
same,Observed Efficacy,"Blumeria graminis [2]; Example 16, dose rate 0.06 ppm",8%
same,Observed Efficacy,"Blumeria graminis [2]; Example 16, dose rate 0.25 ppm",18%
same,Observed Efficacy,"Blumeria graminis [2]; Example 16, dose rate 1 ppm",73%
same,Observed Efficacy,"Blumeria graminis [2]; Example 16, dose rate 4 ppm",99%
S1SSSSSSS1 [sulfur],pest or weed control at 1 ppm,"Puccinia recondita [1]; Example 22, dose rate 1 ppm",0%
C=CC1(C)OC(=O)N(c2cc(Cl)cc(Cl)c2)C1=O (centres unmarked) [vinclozolin],Observed Efficacy,"Botrytis cinerea; Example 4, dose rate 10 ppm",8%
same,Observed Efficacy,"Botrytis cinerea; Example 7, dose rate 1 ppm",0%
same,Observed Efficacy,"Botrytis cinerea; Example 7, dose rate 10 ppm",17%
Trifloxystrobin,Observed Efficacy,"Blumeria graminis [3]; Example 29, dose rate 1.6 ppm",22%
same,Observed Efficacy,"Blumeria graminis [3]; Example 29, dose rate 3.1 ppm",36%
same,Observed Efficacy,"Blumeria graminis [3]; Example 29, dose rate 6.3 ppm",59%
same,Observed Efficacy,"Blumeria graminis [3]; Example 29, dose rate 12.5 ppm",74%
same,Observed Efficacy,"Blumeria graminis [3]; Example 29, dose rate 25 ppm",89%
same,Observed Efficacy,"Blumeria graminis [3]; Example 29, dose rate 50 ppm",96%
same,Observed Efficacy,Blumeria graminis [4]; dose rate 1.6 ppm,34%
same,Observed Efficacy,Blumeria graminis [4]; dose rate 3.1 ppm,55%
same,Observed Efficacy,Blumeria graminis [4]; dose rate 6.3 ppm,78%
same,Observed Efficacy,Blumeria graminis [4]; dose rate 12.5 ppm,89%
same,Observed Efficacy,Blumeria graminis [4]; dose rate 25 ppm,98%
same,Observed Efficacy,Blumeria graminis [4]; dose rate 50 ppm,99%
same,Observed Efficacy,Puccinia recondita [5]; dose rate 1.6 ppm,0%
same,Observed Efficacy,Puccinia recondita [5]; dose rate 3.1 ppm,0%
same,Observed Efficacy,Puccinia recondita [5]; dose rate 6.3 ppm,0%
same,Observed Efficacy,Puccinia recondita [5]; dose rate 12.5 ppm,0%
same,Observed Efficacy,Puccinia recondita [5]; dose rate 25 ppm,0%
same,Observed Efficacy,Blumeria graminis [6]; dose rate 3.1 ppm,0%
same,Observed Efficacy,Blumeria graminis [6]; dose rate 6.3 ppm,0%
same,Observed Efficacy,Blumeria graminis [6]; dose rate 12.5 ppm,0%
same,Observed Efficacy,Blumeria graminis [6]; dose rate 25 ppm,0%
same,Observed Efficacy,Blumeria graminis [6]; dose rate 50 ppm,14%
same,Observed Efficacy,Puccinia recondita [7]; dose rate 3.1 ppm,0%
same,Observed Efficacy,Puccinia recondita [7]; dose rate 6.3 ppm,0%
same,Observed Efficacy,Puccinia recondita [7]; dose rate 12.5 ppm,0%
same,Observed Efficacy,Puccinia recondita [7]; dose rate 25 ppm,0%
same,Observed Efficacy,Puccinia recondita [7]; dose rate 50 ppm,0%
